A melting point compilation (Tetko et al.)
Residues, ends and D or L forms follow the SMILES beside them. *: point of attachment. Butoxycarbonyl = CCCCOC(=O)*; Bn = c1ccc(C*)cc1

Question: For `COc1ccc(-c2cc(C(=O)NCCCCCCc3ccccc3)cc(-c3cccc(C(F)(F)F)c3)c2OCC(=O)O)cc1`, which melting point is on record?
Answer: 153 to 159 °C

Question: With `CCC(C=CC(C)C1CCC2C3CC=C4CC(OC(=O)N(CC(COC(c5ccccc5)(c5ccccc5)c5ccccc5)C(=O)NC)C(C)C)CCC4(C)C3CCC12C)C(C)C` (stereo not given) as the compound, how does the melting point read?
Answer: 92 to 93 °C

Question: For `Cc1cccc(-c2sc(N)nc2-c2ccc([N+](=O)[O-])c(O)c2)n1`, which melting point is on record?
Answer: 260 to 262 °C

Question: With `CC(=O)OCC1OC(n2cc(C3=C(c4cn(S(=O)(=O)c5ccccc5)c5ncccc45)C(=O)N(COCc4ccccc4)C3=O)c3cccnc32)C(OC(C)=O)C(OC(C)=O)C1OC(C)=O` (stereo not given) as the compound, how does the melting point read?
Answer: 108 to 110 °C

Question: Which melting point does the source give for `COC(=O)COc1cc(F)ccc1[N+](=O)[O-]` here?
Answer: 85 to 87 °C

Question: For `C=CCOC(=O)NC(=O)C(c1ccccc1)c1ccccc1`, which melting point is on record?
Answer: 118 to 120 °C

Question: With `CS(=N)(=O)c1ccc([N+](=O)[O-])c(C(=O)C2C=CC(C(F)(F)F)=C(Oc3ccccc3)C2(Cl)[N+](=O)[O-])c1` (stereo not given) as the compound, how does the melting point read?
Answer: 62 to 63 °C

Question: With `IC(I)=C(I)CCOCCC(I)=C(I)I` as the compound, how does the melting point read?
Answer: 43.5 to 44.5 °C

Question: Which melting point does the source give for `CCCc1nc(C(C)(C)O)c(C(=O)OC2OC(=O)c3ccccc32)n1Cc1ccc(-c2ccccc2-c2nnnn2C(c2ccccc2)(c2ccccc2)c2ccccc2)cc1` (stereo not given) here?
Answer: 118 to 120 °C

Question: For `O=C(OCc1ccc(OCCCCCCCCCCC2c3c(c4ccccc4c4ccccc34)-c3c2c2ccccc2c2ccccc32)cc1)C(=CNC1CC1)C(=O)c1cc(F)c(F)cc1F`, which melting point is on record?
Answer: 49 to 51 °C

Question: With `CC(C)(C)c1cc(C(=O)OCCN(CCOC(=O)c2cc(C(C)(C)C)c(O)c(C(C)(C)C)c2)C(=O)c2cc(C(C)(C)C)c(O)c(C(C)(C)C)c2)cc(C(C)(C)C)c1O` as the compound, how does the melting point read?
Answer: 200 to 202 °C

Question: Which melting point does the source give for `CN(Cc1ccccc1)Cc1c(-c2ccc([N+](=O)[O-])cc2)sc2c1c(=O)n(-c1ccccc1)c(=O)n2Cc1c(F)cccc1F` here?
Answer: 173 to 174 °C

Question: For `CCCNC(Cc1cc(I)c(Oc2cc(I)c(O)c(I)c2)c(I)c1)C(=O)O` (stereo not given), which melting point is on record?
Answer: 212 to 213 °C

Question: For `CC(CO)Nc1nc(Nc2ccc(S(C)(=O)=NS(=O)(=O)CC[Si](C)(C)C)cc2)ncc1Br` (mixture of isomers), which melting point is on record?
Answer: 194 to 197 °C

Question: For `CCCCCCCCCCCCSc1c(SCCCCCCCCCCCC)c(SCCCCCCCCCCCC)c(SCCCCCCCCCCCC)c(SCCCCCCCCCCCC)c1SCCCCCCCCCCCC`, which melting point is on record?
Answer: 44 to 45 °C

Question: Which melting point does the source give for `[N-]=[N+]=C(C(=O)OCCN(CCOC(=O)C(=[N+]=[N-])C(=O)C1CCCCC1)CCN(CCOC(=O)C(=[N+]=[N-])C(=O)C1CCCCC1)CCOC(=O)C(=[N+]=[N-])C(=O)C1CCCCC1)C(=O)C1CCCCC1` here?
Answer: 112 to 114 °C

Question: Which melting point does the source give for `CN=S(=O)(Cc1ccc(Cl)nc1)c1nc(-c2ccc(OC)cc2)cs1` (stereo not given) here?
Answer: 160 to 163 °C

Question: For `COCCOCOc1cc(C(ON=C(C(=O)O)c2csc(NC(c3ccccc3)(c3ccccc3)c3ccccc3)n2)C(=O)OC(c2ccccc2)c2ccccc2)cc(C#N)c1OCOCCOC` (stereo not given), which melting point is on record?
Answer: 158 °C

Question: For `O=S(=O)(C(/C=C/c1c(F)c(F)c(F)c(F)c1F)c1ccc(I)cc1)C(/C=C/c1c(F)c(F)c(F)c(F)c1F)c1ccc(I)cc1` (stereo not given), which melting point is on record?
Answer: 178 to 181 °C

Question: Which melting point does the source give for `O=C(O)Cc1cccc(-c2cc(C(=O)CCCCC(=O)c3ccc(OC4OC(CO)C(O)C(O)C4O)c(-c4cccc(CC(=O)O)c4)c3)ccc2OC2OC(CO)C(O)C(O)C2O)c1` (stereo not given) here?
Answer: 127 to 129 °C

Question: For `CCCCOC(=O)NC(COCc1ccccc1)C(=O)NC(Cc1c[nH]c2ccccc12)C(=O)NC(CO)C(=O)NC(Cc1ccc(O)cc1)C(=O)NC(Cc1ccccc1)C(=O)NC(CC(C)C)C(=O)OC` (stereo not given) (Butoxycarbonyl-S(Bn)WSYFL-OMe; configuration not given here), which melting point is on record?
Answer: 200 to 202 °C

Question: With `OCCOc1ccc(-c2ccc(OCCO)cc2)cc1` as the compound, how does the melting point read?
Answer: 201 to 202 °C

Question: For `[C-]#[N+]Cc1nc2ccccc2o1`, which melting point is on record?
Answer: 57 to 57.5 °C

Question: For `COc1cc(OC)c(/C=C/C(c2ccc(OC)c(NC(=O)CO)c2)S(=O)(=O)C(/C=C/c2c(OC)cc(OC)cc2OC)c2ccc(OC)c(NC(=O)CO)c2)c(OC)c1` (stereo not given), which melting point is on record?
Answer: 174 to 176 °C

Question: Which melting point does the source give for `O=C(OI(OC(=O)C(F)(F)F)C(F)(F)C(F)(F)C(F)(F)C(F)(F)C(F)(F)C(F)(F)C(F)(F)C(F)(F)C(F)(F)C(F)(F)F)C(F)(F)F` here?
Answer: 83 to 88 °C

Question: With `O=S(=O)(C(/C=C/c1ccc(I)cc1)c1ccc(Br)cc1)C(/C=C/c1ccc(I)cc1)c1ccc(Br)cc1` (stereo not given) as the compound, how does the melting point read?
Answer: 201 to 203 °C

Question: For `CCCCCCCCCCCCCCCC(=O)C(O)C(O)(C(=O)c1cccc(NC(=O)C(CS)Cc2ccccc2)c1)C(O)C(=O)CCCCCCCCCCCCCCC` (stereo not given), which melting point is on record?
Answer: 66 to 68 °C

Question: With `FC(F)(F)C(F)(F)C(F)(F)C(F)(F)C(F)(F)C(F)(F)C(F)(F)C(F)(F)CCC1(CCC(F)(F)C(F)(F)C(F)(F)C(F)(F)C(F)(F)C(F)(F)C(F)(F)C(F)(F)F)c2ccccc2-c2ccccc21` as the compound, how does the melting point read?
Answer: 87 to 88 °C

Question: With `CCCCCCCCCCCCSc1cc(SCCCCCCCCCCCC)c2ccc3c(SCCCCCCCCCCCC)cc(SCCCCCCCCCCCC)c4ccc1c2c43` as the compound, how does the melting point read?
Answer: 110 °C

Question: With `COc1cc(OC)c(/C=C/C(c2ccc(OC)c(NC(=O)c3ccccc3)c2)S(=O)(=O)C(/C=C/c2c(OC)cc(OC)cc2OC)c2ccc(OC)c(NC(=O)c3ccccc3)c2)c(OC)c1` (stereo not given) as the compound, how does the melting point read?
Answer: 163 to 166 °C

Question: Which melting point does the source give for `O=c1c(CCCc2cccnc2)cc2cccnc2n1-c1cccc([N+](=O)[O-])c1` here?
Answer: 172 to 173 °C

Question: For `CC1(C)CC2(CC(C)(C)N1)NC(=O)N(CC(COc1ccc(C(C)(C)c3ccc(OCC(CN4C(=O)NC5(CC(C)(C)NC(C)(C)C5)C4=O)OC(=O)Nc4ccccc4)cc3)cc1)OC(=O)Nc1ccccc1)C2=O` (stereo not given), which melting point is on record?
Answer: 202 to 207 °C

Question: Which melting point does the source give for `CCCCCc1nc(C)c(C(=O)OCC)n1Cc1ccc2oc(-c3ccccc3-c3nnn(C(c4ccccc4)(c4ccccc4)c4ccccc4)n3)c(Br)c2c1` here?
Answer: 89 to 90 °C

Question: For `CC(C)C(NC(=O)N(C)Cc1ccccn1)C(=O)NC(Cc1ccccc1)C(O)C(O)C(Cc1ccccc1)NC(=O)C(NC(=O)N(C)Cc1nccs1)C(C)C` (stereo not given), which melting point is on record?
Answer: 96 to 97 °C

Question: Which melting point does the source give for `Cc1ccn2c(-c3ccnc(-c4ccc(OCc5cn(C)cn5)cc4)c3)c(-c3cccc(C)n3)nc2c1` here?
Answer: 217 °C

Question: With `C=CCOC1OC(CO)C(O)C(OC(=O)CC(CCCCCCCCCCC)OC(=O)CCCCCCCCCCCCC)C1NC(=O)OCC(Cl)(Cl)Cl` (stereo not given) as the compound, how does the melting point read?
Answer: 68 to 70 °C

Question: Which melting point does the source give for `Brc1ccc2c(c1)C(CCCCCCCCCCn1c3ccccc3c3ccccc31)(CCCCCCCCCCn1c3ccccc3c3ccccc31)c1cc(Br)ccc1-2` here?
Answer: 94 to 96 °C

Question: With `CCCCCCCCCCCC(=O)OC(CCCCCCCCCCC)CC(=O)NC(CCOP(=O)(Oc1ccccc1)Oc1ccccc1)C(=O)OCc1ccccc1` (stereo not given) as the compound, how does the melting point read?
Answer: 31 to 32.1 °C

Question: For `O=C1c2cc(Sc3ccc(Cl)cc3)c(Sc3ccc(Cl)cc3)cc2C(=O)c2c1c(O)c1cc(Sc3ccc(Cl)cc3)c(Sc3ccc(Cl)cc3)cc1c2O`, which melting point is on record?
Answer: > 300 °C

Question: Which melting point does the source give for `CCCCCCCCCCCCOC(CCCCCCCCCCC)CCOC1C(NC(C)=O)C(OCC2OC(C(=O)O)C(NC(=O)CC(O)CCCCCCCCCCC)C(OCCC(O)CCCCCCCCCCC)C2O)OC(CO)C1OP(=O)(O)O` (stereo not given) here?
Answer: 179 to 181 °C

Question: For `COc1cc(COc2nn(-c3ccccc3)cc2/C=C/c2nc(N3CCN(C(=O)OC(C)(C)C)CC3)sc2C)ccc1OCc1nc(-c2ccc(CC(=O)O)cc2)oc1C`, which melting point is on record?
Answer: 119 to 120 °C

Question: With `Cc1cccc(-c2sc(N)nc2-c2ccnc(-c3ccc(CN4CCOCC4)cc3)c2)n1` as the compound, how does the melting point read?
Answer: 236 °C

Question: For `COC(=O)C(CCN1C(=O)c2ccccc2C1=O)Oc1c(Br)cc(-c2c3ccccc3c(Br)c3sc4ccccc4c23)cc1Br` (stereo not given), which melting point is on record?
Answer: 221 to 222 °C

Question: With `COC(=O)C(CCNC(=O)c1ccccc1C(=O)O)Oc1c(Br)cc(-c2ccc(-c3c(Cc4ccccc4)sc4ccccc34)cc2)cc1Br` (stereo not given) as the compound, how does the melting point read?
Answer: 95 to 97 °C

Question: For `CCOc1cc2c(cc1O)CCC1C2CCC2(C)C(O)CCC12` (stereo not given), which melting point is on record?
Answer: 154 to 155 °C

Question: With `CC(c1cc(C(C)(C)C)cc(C(C)(C)C)c1O)c1cc(C(C)(C)C)cc(C(C)(C)C)c1Op1oc2c(C(C)(C)C)cc(C(C)(C)C)cc2c2cc(C(C)(C)C)cc(C(C)(C)C)c2o1` (stereo not given) as the compound, how does the melting point read?
Answer: 273 to 277 °C

Question: For `C=CCOc1ccc(C[C@H](NC(=O)OC(C)(C)C)C(=O)N[C@H](C(=O)OC)C(C)C)cc1`, which melting point is on record?
Answer: 74 to 76 °C

Question: Which melting point does the source give for `CCCCCCCCCCCCCCCC(=O)OCC(COC(=O)CCCCCCCCCCCCCCC)OC(=O)CCCC(=O)Oc1cc(Cl)ccc1Oc1ccc(Cl)cc1Cl` here?
Answer: 44 to 46 °C

Question: For `CCCCCCCCCCCCCCCC(=O)C(O)C(O)(C(=O)c1cccc(NC(=O)C(CSC(C)=O)Cc2ccccc2)c1)C(O)C(=O)CCCCCCCCCCCCCCC` (stereo not given), which melting point is on record?
Answer: 65 to 67 °C

Question: For `CCOCCCO`, which melting point is on record?
Answer: 5.2 °C

Question: Which melting point does the source give for `CC(C)(C)c1cc(-c2cc(C(C)(C)C)cc(C(C)(C)C)c2Op2oc3ccccc3c3ccccc3o2)c(Op2oc3ccccc3c3ccccc3o2)c(C(C)(C)C)c1` here?
Answer: 80 °C

Question: With `O=C(Oc1ccc2c(OC(=O)c3ccc(OCc4ccccc4)cc3)c3cc(OC(=O)c4ccc(OCc5ccccc5)cc4)ccc3cc2c1)c1ccc(OCc2ccccc2)cc1` as the compound, how does the melting point read?
Answer: 219 to 221 °C

Question: With `CCN(CC)CCN=S(=O)(c1ccccc1)c1cccs1` (stereo not given) as the compound, how does the melting point read?
Answer: 116 °C

Question: With `CCCCCCOCC1CN(c2cc3c(cc2F)c(=O)c(C(=O)O)cn3CC)CCN1` (stereo not given) as the compound, how does the melting point read?
Answer: 121 to 124 °C

Question: With `Cc1ccc(S(=O)(=O)N2CCN(C)CCN(S(=O)(=O)c3ccc(C)cc3)CCN(S(=O)(=O)c3ccc(C)cc3)CCN(S(=O)(=O)c3ccc(C)cc3)CC2)cc1` as the compound, how does the melting point read?
Answer: 170 to 171 °C

Question: For `C=C1C(n2ccc(NC(=O)CCCCCCCCCCCCCCCCC)nc2=O)OC(COC(=O)CCCCCCCCCCCCCCCCC)C1(O)C(=O)CCCCCCCCCCCCCCCCC` (stereo not given), which melting point is on record?
Answer: 92 to 96 °C

Question: With `CCCCCCCCCCCCSc1nc(N(C2CC(C)(C)NC(C)(C)C2)C2CC(C)(C)NC(C)(C)C2)nc(N(C2CC(C)(C)NC(C)(C)C2)C2CC(C)(C)NC(C)(C)C2)n1` as the compound, how does the melting point read?
Answer: 168 to 170 °C

Question: With `Cc1cc(C(F)(F)F)ccc1Cn1nc(OC(C)C)cc1CCCOc1ncccc1CC(=O)O` as the compound, how does the melting point read?
Answer: 105 to 107 °C

Question: With `CC(C)[Si](OC(=O)C(Cc1cc(I)c(Oc2cc(I)c(OCC3CO3)c(I)c2)c(I)c1)NC(=O)OC(C)(C)C)(C(C)C)C(C)C` (stereo not given) as the compound, how does the melting point read?
Answer: 109 °C

Question: For `CCCCCCCCCCCCCCCCCCCCCCCCCC(C)=CCCC(C)=CCCC(C)=CCCC(C)=CCCC(C)=CCCC(C)=CCCC(C)=CCCC(C)=CCCC(C)=CCOC(=O)C1CCCCC1`, which melting point is on record?
Answer: 34 to 35 °C
